The source of these data is patent US9018197B2, “Tetradecahydro-1H-cyclopenta[a]phenanthrene compounds, compositions, and related methods of use” (Suzhou Neupharma Co. Ltd., priority 2010, dated 2015).

As a reminder, the IC50 is the concentration that inhibits the measured activity by half. A lower IC50 goes with inhibition by little substance.

For one test, the system named is A549 cells. Description: Inhibition of cell growth in tumor cells, MTT assay, A549 cells. In kind it is cell-based. The settings on record: Homo sapiens, 72 h compound exposure. The procedure:
(§1) Inhibition of cell growth by compounds was measured using MTT assay (Mosmann, T., Journal of Immunological Methods, 1983, 65, 55-63). Tumor cell lines were purchased from ATCC (American Type Culture Collection, Manassas, Va.). All cell lines were maintained in RPMI 1640 (Hyclone) supplemented with 10% fetal bovine serum (FBS, Hyclone), glutamine (2 mM, Hyclone), and antibiotics (penicillin 100 U/mL and streptomycin 50 μg/mL) at 37° C. in a humidified atmosphere of 5% CO2 in air. Taxol (positive control, Sigma) and compounds were dissolved in DMSO (Sigma), and the final concentration of DMSO in the medium was 1%. Tumor cells were plated in 96-well plates at densities from 4000 cells/well of a 96-well plate and allowed to adhere/grow for 24 h. They were then treated with various concentrations of drug for 72 h. 3-(4,5-Dimethylthiazol-2-yl)-2,5-diphenyltetrazolium bromide (MTT, Sigma) was used to determine the number of viable cells at the time of compound addition and the number of cells remaining after 72 h compound exposure. The number of cells remaining after 72 h was compared to the number of viable cells at the time of compound addition by measuring the absorbance at 570 nm, allowing for the calculation of growth inhibition.
(§2) All concentrations of compounds were tested in triplicate and controls were averaged over 4 wells. IC50 was calculated by plotting the concentration of compound vs the percentage of inhibition in treated wells using GraphPad Prism 5.

The test system of a further test is Bcap-37 cells. Description: Inhibition of cell growth in tumor cells, MTT assay, Bcap-37 cells. In kind it is cell-based. Particulars: Homo sapiens, Bcap37, 72 h compound exposure. The method, then: as §1, §2
For orientation: Tetrazolium assays rely on reduction of a dye to a coloured formazan, in cell work by metabolically active cells.

For the molecule `CC(C)[C@@H](N)C(=O)O[C@H]1CC[C@@]2(C)[C@H](CC[C@H]3C4=CC[C@H](c5ccc(=O)oc5)[C@@]4(C)CC[C@@H]32)C1` [(R)-((3S,5R,8R,9S,10S,13R,17S)-10,13-dimethyl-17-(2-oxo-2H-pyran-5-yl)-2,3,4,5,6,7,8,9,10,11,12,13,16,17-tetradecahydro-1H-cyclopenta[a]phenanthren-3-yl) 2-amino-3-methylbutanoate], the values for the IC50 with A549 cells and with Bcap-37 cells were 0.171 µM and 0.155 µM, respectively.
For `C[C@@H](N)C(=O)O[C@H]1CC[C@@]2(C)[C@H](CC[C@H]3C4=CC[C@H](c5ccc(=O)oc5)[C@@]4(C)CC[C@@H]32)C1` [(R)-((3S,5R,8R,9S,10S,13R,17S)-10,13-dimethyl-17-(2-oxo-2H-pyran-5-yl)-2,3,4,5,6,7,8,9,10,11,12,13,16,17-tetradecahydro-1H-cyclopenta[a]phenanthren-3-yl) 2-aminopropanoate] the same measures were 0.106 µM and 0.161 µM.
For `C[C@H](N)C(=O)O[C@H]1CC[C@@]2(C)[C@H](CC[C@H]3C4=CC[C@H](c5ccc(=O)oc5)[C@@]4(C)CC[C@@H]32)C1` [(S)-((3S,5R,8R,9S,10S,13R,17S)-10,13-dimethyl-17-(2-oxo-2H-pyran-5-yl)-2,3,4,5,6,7,8,9,10,11,12,13,16,17-tetradecahydro-1H-cyclopenta[a]phenanthren-3-yl) 2-aminopropanoate], the IC50 in the test on A549 cells was found to be 0.113 µM. In other words, the sub-micromolar range.
Take `C[C@]12CC[C@H](OC(=O)NCCN3CCOCC3)C[C@H]1CC[C@H]1C3=CC[C@H](c4ccc(=O)oc4)[C@@]3(C)CC[C@@H]12` [(3S,5R,8R,9S,10S,13R,17S)-10,13-dimethyl-17-(2-oxo-2H-pyran-5-yl)-2,3,4,5,6,7,8,9,10,11,12,13,16,17-tetradecahydro-1H-cyclopenta[a]phenanthren-3-yl 2-morpholinoethylcarbamate]: the IC50 was 0.0548 µM in the test on A549 cells and 0.192 µM in the test on Bcap-37 cells.
For `C[C@]12CC[C@H](OC(=O)NCCN3CCCC3)C[C@H]1CC[C@H]1C3=CC[C@H](c4ccc(=O)oc4)[C@@]3(C)CC[C@@H]12` [(3S,5R,8R,9S,10S,13R,17S)-10,13-dimethyl-17-(2-oxo-2H-pyran-5-yl)-2,3,4,5,6,7,8,9,10,11,12,13,16,17-tetradecahydro-1H-cyclopenta[a]phenanthren-3-yl 2-(pyrrolidin-1-yl)ethylcarbamate] the same measures were 0.217 µM and 0.168 µM.
As for `C[C@]12CC[C@H](OC(=O)N3CCNCC3)C[C@H]1CC[C@H]1C3=CC[C@H](c4ccc(=O)oc4)[C@@]3(C)CC[C@@H]12` [(3S,5R,8R,9S,10S,13R,17S)-10,13-dimethyl-17-(2-oxo-2H-pyran-5-yl)-2,3,4,5,6,7,8,9,10,11,12,13,16,17-tetradecahydro-1H-cyclopenta[a]phenanthren-3-ylpiperazine-1-carboxylate], the half-inhibitory concentration (IC50) in the test on A549 cells was determined as 0.0902 µM; in the test with Bcap-37 cells it was 0.137 µM.
The molecule `CC(C)C[C@@H](N)C(=O)O[C@H]1CC[C@@]2(C)[C@H](CC[C@H]3C4=CC[C@H](c5ccc(=O)oc5)[C@@]4(C)CC[C@@H]32)C1` [(R)-((3S,5R,8R,9S,10S,13R,17S)-10,13-dimethyl-17-(2-oxo-2H-pyran-5-yl)-2,3,4,5,6,7,8,9,10,11,12,13,16,17-tetradecahydro-1H-cyclopenta[a]phenanthren-3-yl) 2-amino-4-methylpentanoate] returned a half-inhibitory concentration (IC50) in the test on Bcap-37 cells of 0.376 µM.
On the same count and under the same terms, next, `CC(C)[C@H](N)C(=O)O[C@H]1CC[C@@]2(C)[C@H](CC[C@H]3C4=CC[C@H](c5ccc(=O)oc5)[C@@]4(C)CC[C@@H]32)C1` [(S)-((3S,5R,8R,9S,10S,13R,17S)-10,13-dimethyl-17-(2-oxo-2H-pyran-5-yl)-2,3,4,5,6,7,8,9,10,11,12,13,16,17-tetradecahydro-1H-cyclopenta[a]phenanthren-3-yl) 2-amino-3-methylbutanoate]: 0.444 µM.
Turning to `CC(C)C[C@H](N)C(=O)O[C@H]1CC[C@@]2(C)[C@H](CC[C@H]3C4=CC[C@H](c5ccc(=O)oc5)[C@@]4(C)CC[C@@H]32)C1` [(S)-((3S,5R,8R,9S,10S,13R,17S)-10,13-dimethyl-17-(2-oxo-2H-pyran-5-yl)-2,3,4,5,6,7,8,9,10,11,12,13,16,17-tetradecahydro-1H-cyclopenta[a]phenanthren-3-yl) 2-amino-4-methylpentanoate], inhibition in the test on A549 cells was half-maximal at 0.229 µM (IC50).
